Laboratory results published in patent EP4624457A1, “I[…] DERIVATIVES, I[…] NEURODEGENERATIVE DISEASES” (Centre National de la Recherche Scientifique, priority 2024, dated 2025).
Like-named read-outs stand apart in the source and are kept apart here.

Key:
Experiment in all cases: Cell viability / proliferation assay (CellTiter Glo luminescence, 72 h)
Type in all cases: cell-based
[1] = tested on: HT29 colorectal carcinoma cells; details: for IC50: 72 h incubation, mean ± SEM from three distinct experiments
Method: (§1) • Figure 1 represents the chemical structure of ingrilimine according to compound (Illa) formula. • Figure 2 represents the cytotoxic activity of ingrilimine. A2780 ovarian and HT29 colorectal carcinoma cells were grown in RPMI 1640 supplemented with 10% fetal calf serum (FCS) and 1% glutamine. U87-MG glioblastoma cells were grown in Dulbecco minimal essential medium containing 4.5 g/L glucose, 10% FCS and 1% glutamine at 37 °C in a humidified atmosphere containing 5% CO2. For IC50 determination, the cells were seeded in 96-well plates (3 × 10^3 cells/well) containing 90 µL of growth medium. After 24 h of culture, the cells were treated with ingrilimine at 10 different final concentrations. Cell viability was determined by luminescence after 72 h incubation. (a) Effect of ingrilimine on A2780 ovarian carcinoma cells. (b) Effect of ingrilimine on U87-MG glioblastoma cells. (c) Effect of ingrilimine on U87-MG glioblastoma cells • Figure 3a-3f represent the mitochondrial dysfunction provoked by ingrilimine. HCT116 cells were treated with ingrilimine in the range of […] for 24h and 48h. Sector Q normal cells that accumulated the JC-1 dye (fluorescence emission 590 nm). […] (a) Non-treated cells incubated with the carrier (DMSO) for 24 h. (b) HCT116 cells incubated with […] ingrilimine for 24 h. (c) HCT116 cells incubated with 250 nM ingrilimine for 24 h. (d) Non-treated cells incubated with the carrier (DMSO) for 48 h. (e) HCT116 cells incubated with […] ingrilimine for 48 h. (f) HCT116 cells incubated with 250 nM ingrilimine for 48. Changes in fluorescence emission were recorded by flow cytometry using the JC-1 mithocondrial membrane potential-dependent fluorescent dye. NT = non-treated cells; IngX = ingrilimine. • Figure 4a-4f represents phosphatidylserine exposure provoked by ingrilimine. A2780 cancer cells were incubated with ingrilimine in the range of 10-500 nM before staining with FITC-Annexin V and propidium iodide. Quadrants D1 and D2 with dead or necrotic cells, quadrant D3 with normal cells and quadrant D4 with apoptotic cells following phosphatidylserine exposure. (a) Non-treated A2780 cells incubated with the carrier (DMSO) for 24h. (b) A2780 cells incubated with 10 nM ingrilimine for 24 h. (c) A2780 cells incubated with 250 nM ingrilimine for 24 h. (d) Non-treated A2780 cells incubated with the carrier (DMSO) for 48 h. (e) A2780 cells incubated with 10 nM ingrilimine for 48 h. (f) A2780 cells incubated with 250 nM ingrilimine for 48. […] exposure in A2780 cell was quantified by flow cytometry using FITC-Annexin V. Dead or necrotic cells were detected using the vital dye propridium iodide. NT = non-treated cells; IngX = ingrilimine. • Figure 5 represents the antagonistic activity of ingrilimine (named "IngX" in the figure) and portimine (named "Port A" in the figure) against nicotinic acetylcholine receptors recorded by two-electrodes voltage clamp electrophysiology on Xenopus laevis oocytes. Clamped Xenopus laevis oocytes having incorporated the muscle (α1)2βγδ nAChR subtype from Torpedo marmorata (filled squares), or expressing the neuronal α3β2 nAChR subtype from rat (filled triangles), or expressing the human neuronal α7 nAChR subtype (filled circles) were exposed to portimine (100 nM - 1 mM) for 45 seconds. […] A Xenopus laevis oocyte expressing the human α7 nAChR subtype was exposed to 100 µM acetylcholine triggering the immediate opening of the receptor's channel (black bold line) followed by the very-fast closure of the channel ([…]) that became insensitive to acetylcholine during the rest of the 5 seconds exposure (desensitization). When a Xenopus laevis oocyte expressing the human α7 nAChR subtype was exposed first to 10 nM ingrilimine for 45 seconds and then to a mixture (Mix) containing 10 nM ingrilimine and 100 µM acetylcholine, the receptor's channel was closed denoting a strong antagonistic activity of the tested toxin against the α7 nAChR subtype (dotted line). […]

[2] = tested on: U87-MG glioblastoma cells; details: for IC50: 72 h incubation, mean ± SEM from three distinct experiments
Method: as §1

[3] = tested on: A2780 ovarian carcinoma cells
Method: as §1

SMILES | IC50 [1] [nM] | IC50 [2] [nM] | IC50 ([3]; 72 h incubation, mean ± SEM from three distinct experiments, read-out: IC50 ± SEM (nM) A2780) [nM] | cytotoxic activity, times less potent compared to portimine-A ([1]; HT29, ratio of IC50) [times] | IC50 ([1]; Homo sapiens, HT-29) [nM] | IC50 ([2]; Homo sapiens, U-87 MG) [nM] | cytotoxic activity, times less potent compared to portimine-A ([2]; U87-MG, ratio of IC50) [times] | IC50 ([3]; Homo sapiens, A2780, 72 h incubation, mean ± SEM from three distinct experiments, read-out: IC50 ± SEM (nM) A2780) [nM] | IC50 ([3]; Homo sapiens, A2780, HT29 and U87-MG together, read-out: IC50 values, range over the three cancer cell lines tested) [nM] | times less potent than portimine-A to kill the A2780 ovarian cancer cells ([3]; ratio of IC50) [times]
C=CC1=C[C@@H]2[C@@H]3O[C@]4(CC[C@H](O4)[C@@H](C)C[C@@H](O)C3=O)C[C@H](O)C3=NCC[C@@]32CC1 [Portimine-A] | 6.4 ± 0.1 | 8.1 ± 7.8 | 0.77 ± 0.1 | – | – | – | – | – | – | –
C=CC1=C[C@@H]2C[C@@H](O)[C@@H](O)/C(C)=C/C/C(C)=C/CCC3=NCCC[C@]32CC1 [Ingrilimine, ingrilimine] | – | – | – | 5 | 34.3 ± 1.1 | 44.2 ± 0.3 | 5 | 10.6 ± 0.2 | 10 to 45 | 13
